Values after ≈ are worked out from the molar mass of the structure shown.
Assays:
Format in all cases: functional
Staphylococcus aureus [1] = test: Antibacterial activity against methicillin-resistant Staphylococcus aureus
Enterococcus faecalis = test: Antibacterial activity against vancomycin-resistant Enterococcus faecalis
Bacillus subtilis [2] = test: Antibacterial activity against Bacillus subtilis
Staphylococcus aureus [3] = test: Antibacterial activity against Staphylococcus aureus
Bacillus anthracis = test: Antibacterial activity against Bacillus anthracis
Bacillus subtilis [4] = test: Antibacterial activity against Bacillus subtilis assessed as reduction of bacterial viability at 2 times MIC after 30mins

SMILES	MIC (Staphylococcus aureus [1]) [µg/mL]	MIC (Enterococcus faecalis) [µg/mL]	MIC (Bacillus subtilis [2]) [µg/mL]	MIC (Staphylococcus aureus [3]) [µg/mL]	MIC (Bacillus anthracis) [µg/mL]	log10cfu (Bacillus subtilis [4])
C[C@H](C[C@H]1CC[C@@H]([C@H](C)Cn2cc(-c3ccccn3)nn2)O1)OC(=O)c1ccccc1	210 (≈ 499 µM)	26 (≈ 61.8 µM)	20 (≈ 47.6 µM)	320 (≈ 761 µM)	320 (≈ 761 µM)	–
COC(=O)CCC(=O)O[C@H](C)C[C@H]1CC[C@@H]([C@H](C)Cn2cc(-c3cccc(NC(C)=O)c3)nn2)O1	122 (≈ 251 µM)	61 (≈ 125 µM)	91 (≈ 187 µM)	370 (≈ 760 µM)	180 (≈ 370 µM)	>3
CC(CC1CCC(C(C)Cn2cc(-c3ccccn3)nn2)O1)OC(=O)c1ccccc1 (racemic)	–	–	40 (≈ 95.1 µM)	630 (≈ 1500 µM)	630 (≈ 1500 µM)	–
Br.COC(=O)CCC(=O)OC(C)CC1CCC(C(C)Cn2cc(-c3cccc(NC(C)=O)c3)nn2)O1 (racemic)	–	–	180	370	370	–
COC(=O)CCC(=O)O[C@@H](C)C[C@@H]1CC[C@H]([C@@H](C)Cn2cc(-c3cccc(NC(C)=O)c3)nn2)O1 (single isomer, unassigned)	–	> 730	> 730	> 730	> 730	–
C[C@@H](C[C@@H]1CC[C@H]([C@@H](C)Cn2cc(-c3ccccn3)nn2)O1)OC(=O)c1ccccc1 (single isomer, unassigned)	–	> 630	> 630	> 630	> 630	–
